Results: US12054500B2, “Arginase inhibitors” (ARCUS BIOSCIENCES, INC., priority 2018, dated 2024)

Target: T1, recombinant human ARG1 (Homo sapiens, UniProt P05089)
T1 sequence (P05089 1-322): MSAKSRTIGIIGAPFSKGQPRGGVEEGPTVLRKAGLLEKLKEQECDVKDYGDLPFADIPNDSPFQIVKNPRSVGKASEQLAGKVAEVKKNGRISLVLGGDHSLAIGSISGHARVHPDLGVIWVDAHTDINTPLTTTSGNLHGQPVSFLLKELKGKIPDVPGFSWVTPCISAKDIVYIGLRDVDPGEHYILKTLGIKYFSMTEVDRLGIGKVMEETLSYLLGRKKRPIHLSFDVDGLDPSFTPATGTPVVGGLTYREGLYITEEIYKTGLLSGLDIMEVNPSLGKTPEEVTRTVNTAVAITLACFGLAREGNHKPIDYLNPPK
Test: Arginase coupled enzymatic assay using recombinant human ARG1
Assay type: biochemical
Details: 2 nM ARG1, 0.8 mM L-Arginine, 10 mM sodium phosphate pH 7.4, 37° C.; read-out: Potency: Arginase 1 inhibition IC50
Method: Measurement of Compound Potency by Arginase Coupled Enzymatic Assay Using Recombinant Human ARG1 and ARG2
Purified recombinant human ARG1 and ARG2 were prepared in 50 mM Bicine, pH 8.5, 100 μM MnCl2, 20% glycerol and 1 mM DTT at a final stock concentration of 14.4 μM and 7.56 μM respectively. 2.5 nM of either ARG1 or ARG2 were incubated with varying concentrations of compounds in 10 mM sodium phosphate, pH 7.4, 0.1 mM MnCl2 and 2.5% DMSO in a total volume of 40 μl in a 384-well microplate (Corning™ #3640) at 37° C. for 1 h. The arginase enzymatic reaction was initiated by addition of 10 μl of 4 mM L-Arginine pre-incubated in 10 mM sodium phosphate, pH 7.4, and 0.1 mM MnCl2 at 37° C. into the enzyme and compound mixture, giving the final reaction conditions: 2 nM of ARG1 or ARG2 and 0.8 mM of L-Arginine in 10 mM sodium phosphate, pH 7.4, 0.1 mM MnCl2 and 2% DMSO with varying concentrations of compounds. Following 2 h incubation at 37° C., the arginase enzymatic reaction was stopped by transfer of 10 μl of reaction into 10 μl of detection mix (204 μM Amino-2-Borono-6-Hexanoic Acid, 0.25 μl Arginase Enzyme mix, 0.25 μl Arginase Developer, 0.25 μl Arginase Converter Enzyme in Arginase Assay Buffer from Arginase Activity Colorimetric Assay Kit, BioVision Inc. #K755-100) in a transparent 384-well microplate (Greiner #781801). The plate was immediately put into a plate reader (Synergy™ Neo2 Multi-Mode Microplate Reader) to monitor absorption at 570 nm at 37° C. Absorption values at 12-20 min were used to calculate compound potency. The value of the DMSO blank (MIN inhibition=100% activity) was used as a negative control. The positive control was established by adding 8 μl of enzyme and DMSO mix into 10 μl of detection mix followed by addition of 2 μl of L-Arginine (MAX inhibition=0% activity). To calculate the percent activity, Equation 1 was used. Abs570nm is the value at a given compound concentration:
A counter-screen was performed to identify any inhibition of the coupling enzymes by the test compounds. 10 μl of 0.26 mM of urea with varying concentrations of compounds in 10 mM sodium phosphate, pH 7.4, 0.1 mM MnCl2 and 2% DMSO were added into 10 μl of detection mix in place of the arginase enzymatic reaction mix. Absorption was monitored at 570 nm as described above. The values of a no substrate blank (without urea; MAX inhibition=0% activity) and a DMSO blank (MIN inhibition=100% activity) were used as positive and negative controls respectively. […] Inactivity in the counter-screen was used to confirm that results accurately reflected IC50 values for ARG1 and ARG2.

| Compound | IC50 |
| --- | --- |
| NCCN1C[C@@H]2C[C@@](N)(C(=O)O)[C@@H](CCCB(O)O)[C@@H]2C1 | 100 to 1000 nM |
| N[C@@]1(C(=O)O)C[C@H]2CNC[C@H]2[C@@H]1CCCB(O)O | < 100 nM |
| C[C@H](N)C(=O)N1C[C@@H]2C[C@@](N)(C(=O)O)[C@@H](CCCB(O)O)[C@@H]2C1 | 100 to 1000 nM |
| C[C@H](N)C(=O)N1C[C@@H]2C[C@](N)(C(=O)O)[C@H](CCCB(O)O)[C@@H]2C1 | 100 to 1000 nM |
| N[C@]1(C(=O)O)C[C@H]2CN(C(=O)[C@@H]3CCCN3)C[C@H]2[C@H]1CCCB(O)O | 100 to 1000 nM |
| N[C@@]1(C(=O)O)C[C@H]2CN(C3COC3)C[C@H]2[C@@H]1CCCB(O)O | 100 to 1000 nM |
| N[C@@]1(C(=O)O)C[C@H]2CN(C(CO)CCl)C[C@H]2[C@@H]1CCCB(O)O (some centres unmarked) | < 100 nM |
| CC1(C)[C@H]2C[C@@H]3OB(CCC[C@H]4[C@@H]5CNC[C@@H]5C[C@@]4(N)C(=O)O)O[C@]3(C)[C@@H]1C2 | 100 to 1000 nM |
